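Grown in 96-well plates, cells were treated for 48 hours with each compound at five concentrations. Insufficient inhibition: endpoint recorded as highest concentration tested. Definition used: TGI = concentration required for complete inhibition of growth.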
Experiments:
Test in all cases: NCI anticancer screen, dose series, 48 h
A549 NSCLC = system: A549 NSCLC
COLO 205 colon = system: COLO 205 colon
EKVX NSCLC = system: EKVX NSCLC
HCC-2998 colon = system: HCC-2998 colon
IGROV1 ovarian = system: IGROV1 ovarian
KM12 colon = system: KM12 colon
MDA-MB-231 breast = system: MDA-MB-231 breast
MDA-N = system: MDA-N
NCI/ADR-RES ovarian = system: NCI/ADR-RES ovarian
OVCAR-5 ovarian = system: OVCAR-5 ovarian
OVCAR-8 ovarian = system: OVCAR-8 ovarian
RXF 393 renal = system: RXF 393 renal
SF-539 CNS = system: SF-539 CNS
SNB-19 CNS = system: SNB-19 CNS
SW-620 colon = system: SW-620 colon
UACC-257 melanoma = system: UACC-257 melanoma
UACC-62 melanoma = system: UACC-62 melanoma
SR leukemia = system: SR leukemia

Structure (SMILES) | TGI (A549 NSCLC) | TGI (COLO 205 colon) | TGI (EKVX NSCLC) | TGI (HCC-2998 colon) | TGI (IGROV1 ovarian) | TGI (KM12 colon) | TGI (MDA-MB-231 breast) | TGI (MDA-N) | TGI (NCI/ADR-RES ovarian) | TGI (OVCAR-5 ovarian) | TGI (OVCAR-8 ovarian) | TGI (RXF 393 renal) | TGI (SF-539 CNS) | TGI (SNB-19 CNS) | TGI (SW-620 colon) | TGI (UACC-257 melanoma) | TGI (UACC-62 melanoma) | TGI (SR leukemia)
Cc1ccc(S(=O)(=O)Nn2c(O)c(C#N)c(-c3ccc(N(C)C)cc3)c(C#N)c2=O)cc1 | > 50 µM | > 50 µM | > 50 µM | > 50 µM | > 50 µM | > 50 µM | > 50 µM | > 50 µM | > 50 µM | > 50 µM | > 50 µM | > 50 µM | > 50 µM | > 50 µM | > 50 µM | > 50 µM | > 50 µM | –
O=c1c2cc(S(=O)(=O)Nc3c(Cl)cccc3Cl)ccc2ncn1NS(=O)(=O)c1ccc2ccccc2c1 | > 62.5 µM | > 62.5 µM | > 62.5 µM | > 62.5 µM | > 62.5 µM | > 62.5 µM | > 62.5 µM | > 62.5 µM | > 62.5 µM | > 62.5 µM | > 62.5 µM | – | > 62.5 µM | > 62.5 µM | > 62.5 µM | > 62.5 µM | > 62.5 µM | > 62.5 µM
CCc1ccccc1NC(=O)C(=O)CC(=O)c1sc(Nc2ccccc2Cl)nc1C | 80 µM | 52.3 µM | > 100 µM | > 100 µM | > 100 µM | > 100 µM | > 100 µM | 94.4 µM | > 100 µM | > 100 µM | > 100 µM | 74.2 µM | 66.1 µM | > 100 µM | 69.9 µM | > 100 µM | > 100 µM | –
O=C(c1cccs1)N(Cc1cccnc1)C(=S)N(Cc1cccnc1)C(=O)c1cccs1 | > 100 µM | > 100 µM | > 100 µM | > 100 µM | – | > 100 µM | > 100 µM | > 100 µM | > 100 µM | > 100 µM | > 100 µM | > 100 µM | 88.7 µM | > 100 µM | > 100 µM | > 100 µM | > 100 µM | > 100 µM
COc1ccc(C2=NN(C(=O)c3cccnc3)C(O)(c3cc(F)c(Cl)cc3Cl)C2)cc1OC (stereo not given) | > 100 µM | 27.8 µM | 73.6 µM | – | 30.5 µM | > 100 µM | 37.9 µM | 90 µM | 49.9 µM | > 100 µM | 35.7 µM | 33.5 µM | 33.5 µM | > 100 µM | 69.8 µM | 34.2 µM | – | 53.7 µM
O=C1COCCN1C(=O)c1ccccc1Cl | > 100 µM | – | > 100 µM | > 100 µM | > 100 µM | > 100 µM | > 100 µM | > 100 µM | > 100 µM | > 100 µM | > 100 µM | > 100 µM | > 100 µM | > 100 µM | > 100 µM | > 100 µM | > 100 µM | > 100 µM
CCn1c2ccccc2c2cc(NC(=O)c3c(NCCNCCO)nc(=O)[nH]c3C)ccc21 | > 100 µM | > 100 µM | > 100 µM | > 100 µM | > 100 µM | > 100 µM | > 100 µM | > 100 µM | > 100 µM | > 100 µM | > 100 µM | > 100 µM | > 100 µM | > 100 µM | > 100 µM | > 100 µM | > 100 µM | –
CC[C@H]1C=CCC[C@@]2(C[C@@H]3CC[C@H]4[C@H](C(=O)OCCCCCCCCCCCCCCCC(=O)N(CCCN)C[C@@H](O)CCN)[C@]5(CCC[C@@H](C)O5)NC(=[N+]34)N2)O1 | 1.74 µM | 1.3 µM | 2.66 µM | 1.82 µM | 2.02 µM | 1.82 µM | – | 1.51 µM | 4.81 µM | 1.78 µM | 2.92 µM | 3.42 µM | 3.32 µM | 2.93 µM | 3.51 µM | 2.02 µM | 0.412 µM | 1.23 µM
COC(=O)[C@H](COC(=O)/C=C/c1ccc(OC(C)=O)c(OC(C)=O)c1)NC(=O)/C=C/c1ccc(OC(C)=O)c(OC(C)=O)c1 | > 100 µM | 37 µM | 38.9 µM | 36.6 µM | 43 µM | 36.6 µM | 36.8 µM | 38.8 µM | > 100 µM | 49.7 µM | 67.4 µM | > 100 µM | > 100 µM | 35.8 µM | > 100 µM | 42.1 µM | 31.9 µM | –
CN(C)c1nc(=NCc2cccnc2)ss1 | > 10 µM | > 10 µM | > 10 µM | – | > 10 µM | > 10 µM | > 10 µM | > 10 µM | – | – | > 10 µM | > 10 µM | – | – | > 10 µM | > 10 µM | > 10 µM | > 10 µM
CCN(CC)C(=S)SS(=O)(=O)c1ccc(NC(C)=O)cc1 | 43.4 µM | > 72.1 µM | > 100 µM | > 100 µM | – | > 100 µM | 36.4 µM | > 78.8 µM | 95.4 µM | 60.5 µM | 29.1 µM | 33 µM | – | > 100 µM | 32 µM | 58.7 µM | > 91.3 µM | > 51.6 µM
N#CC1(C#N)C(c2ccccc2)C=CC(c2ccc([N+](=O)[O-])cc2)C1(C#N)C#N (stereo not given) | 32 µM | 3.13 µM | 28.6 µM | 42.9 µM | 27.8 µM | 52.5 µM | 28.1 µM | 17 µM | > 74.4 µM | 31.9 µM | 27.5 µM | – | 8.38 µM | 34.1 µM | > 32.4 µM | 30.2 µM | 24.8 µM | > 23.6 µM
COC(=O)c1ccccc1C1CN=NC12Cc1cc(C)cc(C)c1C2=O (stereo not given) | > 100 µM | > 100 µM | > 100 µM | > 100 µM | > 100 µM | > 100 µM | > 100 µM | > 100 µM | > 100 µM | > 100 µM | > 100 µM | > 100 µM | > 100 µM | > 100 µM | > 100 µM | > 100 µM | > 100 µM | –
